Test results: patent US8415351B2 (priority 2007, dated 2013)
Where a name gives a salt, the structure may show the parent alone.

How the values were obtained:
[1] = molecular target: T1, HCV polymerase 1B (Δ21 NS5B, BK) (Hepatitis C virus genotype 1b, UniProt P26663); test: biochemical
T1 construct: 20 to 50 nM Δ21 NS5B
Procedure: (§1) HCV Polymerase Inhibition Assay
(§2) Either two-fold serial dilutions (fractional inhibition assay) or a narrower range of dilutions spanning the IC50 of the inhibitor (tight binding assay) of the inhibitors were incubated with 20 mM Tris-Cl pH 7.4, 2 mM MnCl2, 1 mM dithiothreitol, 1 mM ethylene diamine tetraacetic acid (EDTA), 60 to 125 μM GTP and 20 to 50 nM Δ21 NS5B (HCV Strain 1B (BK, Genbank accession number M58335, or H77, Genbank accession number AF011751)) for 15 min at room temperature. The reaction was initiated by the addition of 20 μM CTP, 20 μM ATP, 1 μM ^3H-UTP (10 mCi/umol), 5 nM template RNA and 0.1 U/μl RNase inhibitor (RNasin, Promega), and allowed to proceed for 2 to 4 h at room temperature. Reaction volume was 50 μl. The reaction was terminated by the addition of 1 volume of 4 mM spermine in 10 mM Tris-Cl pH 8.0, 1 mM EDTA. After incubation for at least 15 min at room temperature, the precipitated RNA was captured by filtering through a GF/B filter (Millipore) in a 96 well format. The filter plate was washed three times with 200 μl each of 2 mM spermine, 10 mM Tris-Cl pH 8.0, 1 mM EDTA, and 2 times with ethanol. After air-drying, 30 μl of Microscint 20 scintillation cocktail (Packard) was added to each well, and the retained cpm were determined by scintillation counting. […] Retained cpm were plotted vs. inhibitor concentration and fit to equation 1 using non-linear regression (ref. 1) to obtain the IC50 values: Retained cpm=A[sqrt{(IC50+It−Et)^2+4*IC50*Et}−(IC50+It−Et)]
Ref. Morrison, J. F. and S. R. Stone. 1985. Approaches to the study and analysis of the inhibition of enzymes by slow- and tight-binding inhibitors. Comments Mol. Cell. Biophys. 2: 347-368.
The sequence of the template RNA used was: 5′-[…] […] […] […] […] […] […] […] […] […] […] […] […] […] […] […] […]-3′ (SEQ ID NO: 1)

[2] = molecular target: T2, HCV polymerase 1A (Δ21 NS5B, H77) (Hepatitis C virus genotype 1a, UniProt P27958); test: biochemical; details: IC50 1a
T2 construct: 20 to 50 nM Δ21 NS5B
Procedure: as §1
as §2, with “The” for “Either two-fold serial dilutions (fractional inhibition assay) or a narrower range of dilutions spanning the IC50 of the inhibitor (tight binding assay) of the inhibitors were incubated with 20 mM Tris-Cl pH 7.4, 2 mM MnCl2, 1 mM dithiothreitol, 1 mM ethylene diamine tetraacetic acid (EDTA), 60 to 125 μM GTP and 20 to 50 nM Δ21 NS5B (HCV Strain 1B (BK, Genbank accession number M58335, or H77, Genbank accession number AF011751)) for 15 min at room temperature. The”
Ref. Morrison, J. F. and S. R. Stone. […] Approaches to the study and analysis of the inhibition of enzymes by slow- and tight-binding inhibitors. Comments Mol. Cell. Biophys.
The sequence of the template RNA used was: 5′-[…]

[3] = system: genotype 1a-H77 subgenomic replicon cell line; test: microbe, parasite or virus in culture; type: cell-based, HCV; details: Hepatitis C virus, read-out: EC50 1a
[4] = system: genotype 1b-Con1 subgenomic replicon cell line; test: microbe, parasite or virus in culture; type: cell-based, HCV; details: Hepatitis C virus, read-out: EC50 1b

T1 sequence (P26663 2420-2989, stated change not applied): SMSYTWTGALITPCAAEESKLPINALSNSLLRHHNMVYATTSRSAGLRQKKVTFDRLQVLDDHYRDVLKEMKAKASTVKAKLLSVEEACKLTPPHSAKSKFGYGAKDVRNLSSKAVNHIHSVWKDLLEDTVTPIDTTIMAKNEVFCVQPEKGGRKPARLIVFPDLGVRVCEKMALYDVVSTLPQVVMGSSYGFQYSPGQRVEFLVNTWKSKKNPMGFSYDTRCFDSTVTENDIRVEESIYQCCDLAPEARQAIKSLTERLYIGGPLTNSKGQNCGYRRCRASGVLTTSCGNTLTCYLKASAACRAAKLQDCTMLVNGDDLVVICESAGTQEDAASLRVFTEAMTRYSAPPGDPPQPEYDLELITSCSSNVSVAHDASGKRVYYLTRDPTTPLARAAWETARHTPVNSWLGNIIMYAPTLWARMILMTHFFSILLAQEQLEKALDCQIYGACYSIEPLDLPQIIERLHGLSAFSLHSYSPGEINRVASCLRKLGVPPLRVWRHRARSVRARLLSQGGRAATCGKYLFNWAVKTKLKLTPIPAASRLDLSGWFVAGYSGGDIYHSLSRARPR
T2 sequence (P27958 2421-2990, stated change not applied): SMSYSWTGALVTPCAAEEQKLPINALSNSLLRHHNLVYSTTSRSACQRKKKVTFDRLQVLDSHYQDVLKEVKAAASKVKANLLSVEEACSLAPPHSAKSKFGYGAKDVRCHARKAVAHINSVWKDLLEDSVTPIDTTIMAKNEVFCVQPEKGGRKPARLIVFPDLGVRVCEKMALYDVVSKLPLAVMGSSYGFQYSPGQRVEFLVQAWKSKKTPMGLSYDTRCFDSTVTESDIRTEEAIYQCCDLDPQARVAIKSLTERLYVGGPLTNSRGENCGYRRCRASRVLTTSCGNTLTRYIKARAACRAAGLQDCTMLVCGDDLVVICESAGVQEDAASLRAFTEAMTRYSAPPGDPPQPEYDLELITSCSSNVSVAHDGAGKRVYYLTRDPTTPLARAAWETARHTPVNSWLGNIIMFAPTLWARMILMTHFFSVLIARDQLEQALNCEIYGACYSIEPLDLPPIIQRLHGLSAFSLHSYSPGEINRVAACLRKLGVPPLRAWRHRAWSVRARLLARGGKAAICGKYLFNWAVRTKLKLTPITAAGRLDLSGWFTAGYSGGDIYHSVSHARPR

CN(C(=O)c1cc(N2CCC(=O)NC2=O)cc(C(C)(C)C)c1O)c1ccccc1 [IA-L3-1.1, 3-tert-butyl-5-(2,4-dioxotetrahydropyrimidin-1(2H)-yl)-2-hydroxy-N-methyl-N-phenyl-benzamide]
IC50 [1]: > 1000 nM
IC50 [2]: > 1000 nM

CCOC(=O)C1CCCN(Cc2cc(N3CCC(=O)NC3=O)cc(C(C)(C)C)c2O)C1 (centres unmarked) [IA-L5-1-1.3, 1-[3-tert-butyl-5-(2,4-dioxo-tetrahydro-pyrimidin-1-yl)-2-hydroxy-benzyl]-piperidine-3-carboxylic acid ethyl ester]
IC50 [1]: > 1000 nM
IC50 [2]: > 1000 nM

COC(=O)C1CCN(Cc2cc(N3CCC(=O)NC3=O)cc(C(C)(C)C)c2O)CC1 [IA-L5-1-1.5, 1-[3-tert-butyl-5-(2,4-dioxo-tetrahydro-pyrimidin-1-yl)-2-hydroxy-benzyl]-piperidine-4-carboxylic acid methyl ester]
IC50 [1]: > 1000 nM
IC50 [2]: > 1000 nM

COC(=O)N(c1ccc(NC(=O)c2cc(N3CCC(=O)NC3=O)cc(C(C)(C)C)c2OC)cc1)S(C)(=O)=O [IA-L3-1.73, Methyl 4-(3-tert-butyl-5-(2,4-dioxotetrahydropyrimidin-1(2H)-yl)-2-methoxybenzamido) phenyl(methylsulfonyl)carbamate]
IC50 [1]: > 1000 nM
IC50 [2]: > 1000 nM

CC(C)(C)c1cc(N2CCC(=O)NC2=O)cc(CN2CCOCC2)c1O [IA-L5-1-1.14, 1-(3-tert-butyl-4-hydroxy-5-(morpholinomethyl)phenyl)dihydropyrimidine-2,4(1H,3H)-dione 2,2,2-trifluoroacetate]
IC50 [1]: > 1000 nM
IC50 [2]: > 1000 nM

CCN(c1ccc(NC(=O)c2cc(N3CCC(=O)NC3=O)cc(C(C)(C)C)c2OC)cc1)S(C)(=O)=O [IA-L3-1.63, 3-tert-butyl-5-(2,4-dioxotetrahydropyrimidin-1(2H)-yl)-N-(4-(N-ethylmethylsulfonamido)phenyl)-2-methoxybenzamide]
IC50 [1]: > 1000 nM
IC50 [2]: > 1000 nM

CCCC(=O)OCN1C(=O)CCN(c2cc(C(=O)Nc3ccc(N(COC(=O)CCC)S(C)(=O)=O)cc3)c(OC)c(C(C)(C)C)c2)C1=O [IA-L3-1.88, (N-(4-(3-tert-butyl-5-(3-(butyryloxymethyl)-2,4-dioxotetrahydropyrimidin-1(2H)-yl)-2-methoxybenzamido)phenyl)methylsulfonamido)methyl butyrate]
IC50 [1]: > 1000 nM
IC50 [2]: > 1000 nM

COc1c(C(=O)Nc2ccc(NS(C)(=O)=O)cc2)cc(N2CCC(=O)N(CC3OCCO3)C2=O)cc1C(C)(C)C [IA-L3-1.117, 5-(3-((1,3-dioxolan-2-yl)methyl)-2,4-dioxotetrahydropyrimidin-1(2H)-yl)-3-tert-butyl-2-methoxy-N-(4-(methylsulfonamido)phenyl)benzamide]
IC50 [1]: > 1000 nM
IC50 [2]: > 1000 nM

COc1c(C(=O)Nc2ccc(N(CC3CC3)S(C)(=O)=O)cc2)cc(N2CCC(=O)NC2=O)cc1C(C)(C)C [IA-L3-1.66, 3-tert-butyl-N-(4-(N-(cyclopropylmethyl)methylsulfonamido)phenyl)-5-(2,4-dioxotetrahydropyrimidin-1(2H)-yl)-2-methoxybenzamide]
IC50 [1]: > 1000 nM
IC50 [2]: > 1000 nM

CC(C)(C)c1cc(N2CCC(=O)NC2=O)cc(CN2CCC(NS(C)(=O)=O)C2)c1O (centres unmarked) [IA-L5-1-1.11, N-{1-[3-tert-butyl-5-(2,4-dioxo-tetrahydro-pyrimidin-1-yl)-2-hydroxy-benzyl]-pyrrolidin-3-yl}-methanesulfonamide]
IC50 [1]: > 1000 nM
IC50 [2]: > 1000 nM

CC(C)(C)c1cc(N2CCC(=O)NC2=O)cc(CN2CCCC(C(N)=O)C2)c1O (centres unmarked) [IA-L5-1-1.8, 1-[3-tert-butyl-5-(2,4-dioxo-tetrahydro-pyrimidin-1-yl)-2-hydroxy-benzyl]-piperidine-3-carboxylic acid amide, trifluoroacetic acid salt]
IC50 [1]: > 1000 nM
IC50 [2]: > 1000 nM

COc1c(-c2ncc(-c3ccc([N+](=O)[O-])cc3)o2)cc(N2CCC(=O)NC2=O)cc1C(C)(C)C [IA-L0-1.11, 1-(3-tert-butyl-4-methoxy-5-(5-(4-nitrophenyl)oxazol-2-yl)phenyl)dihydropyrimidine-2,4(1H,3H)-dione]
IC50 [1]: > 1000 nM
IC50 [2]: > 1000 nM

COc1c(-c2ncc(-c3cccc([N+](=O)[O-])c3)o2)cc(N2CCC(=O)NC2=O)cc1C(C)(C)C [IA-L0-1.10, 1-(3-tert-butyl-4-methoxy-5-(5-(3-nitrophenyl)oxazol-2-yl)phenyl)dihydropyrimidine-2,4(1H,3H)-dione]
IC50 [1]: > 1000 nM
IC50 [2]: > 1000 nM

CC(C)(C)c1cc(N2CCC(=O)NC2=O)cc(C(=O)Nc2ccc(OCC#N)cc2)c1O [IA-L3-1.17, 3-tert-butyl-N-(4-(cyanomethoxy)phenyl)-5-(2,4-dioxotetrahydropyrimidin-1(2H)-yl)-2-hydroxybenzamide]
IC50 [2]: > 1000 nM
EC50 [3]: > 1000 nM
EC50 [4]: > 1000 nM

CC(C)(C)c1cc(N2CCC(=O)NC2=O)cc(C(=O)Nc2ccc(OCC(N)=O)cc2)c1O [IA-L3-1.18, N-(4-(2-amino-2-oxoethoxy)phenyl)-3-tert-butyl-5-(2,4-dioxotetrahydropyrimidin-1(2H)-yl)-2-hydroxybenzamide]
IC50 [2]: > 1000 nM
EC50 [3]: > 1000 nM
EC50 [4]: 100 to 1000 nM

COc1c(/C=C\c2ccc(NS(C)(=O)=O)cc2)cc(-n2ccc(=O)[nH]c2=O)cc1C(C)(C)C [IB-L1-1.34, N-(4-{(Z)-2-[3-tert-Butyl-5-(2,4-dioxo-3,4-dihydro-2H-pyrimidin-1-yl)-2-methoxy-phenyl]-vinyl}-phenyl)-methanesulfonamide]
EC50 [3]: 10 to 100 nM
EC50 [4]: < 10 nM

COc1c(-c2ccc3ccccc3c2)cc(-n2ccc(=O)[nH]c2=O)cc1C(C)(C)C [IB-L0-2.1, 1-(3-tert-butyl-4-methoxy-5-(naphthalen-2-yl)phenyl)pyrimidine-2,4(1H,3H)-dione]
EC50 [3]: > 1000 nM
EC50 [4]: 100 to 1000 nM

COc1c(-c2nc3cc(NS(C)(=O)=O)ccc3s2)cc(N2CCC(=O)NC2=O)cc1C(C)(C)C [IA-L0-2.4, N-(2-(3-tert-butyl-5-(2,4-dioxotetrahydropyrimidin-1(2H)-yl)-2-methoxyphenyl)benzo[d]thiazol-5-yl)methanesulfonamide]
EC50 [3]: > 1000 nM
EC50 [4]: 100 to 1000 nM

COc1c(-c2ccc3c(C)coc3c2)cc(-n2ccc(=O)[nH]c2=O)cc1C(C)(C)C [IB-L0-2.42, 1-(3-tert-butyl-4-methoxy-5-(3-methylbenzofuran-6-yl)phenyl)-pyrimidine-2,4(1H,3H)-dione]
EC50 [3]: 100 to 1000 nM
EC50 [4]: 100 to 1000 nM

COc1c(-c2ccc3nc(NS(C)(=O)=O)sc3c2)cc(-n2ccc(=O)[nH]c2=O)cc1C(C)(C)C [IB-L0-2.28, N-(6-(3-tert-butyl-5-(2,4-dioxo-3,4-dihydropyrimidin-1(2H)-yl)-2-methoxyphenyl)benzo[d]thiazol-2-yl)methanesulfonamide]
EC50 [3]: > 1000 nM
EC50 [4]: 100 to 1000 nM

CNC(=O)c1cc(NS(C)(=O)=O)ccc1/C=C/c1cc(-n2ccc(=O)[nH]c2=O)cc(C(C)(C)C)c1OC [IB-L1-1.17, 2-{(E)-2-[3-tert-butyl-5-(2,4-dioxo-3,4-dihydro-2H-pyrimidin-1-yl)-2-methoxy-phenyl]-vinyl}-5-methanesulfonylamino-N-methyl-benzamide]
EC50 [3]: 10 to 100 nM
EC50 [4]: < 10 nM
